# Measurements: patent US9926581B2, “Fagopyritol synthase genes and uses thereof” (Cornell Research Foundation, Inc., priority 2002, dated 2018)
# Entries after “also recorded” stand apart in the source; their conditions may differ.
# Legend:
# Settings in all cases: for activity as galactosyl acceptor: UDP-Gal as galactosyl donor, 20 mM substrates, 5 mM MnCl2, 30° C.
# FeGolS-1 = assay: Fagopyritol synthase / galactinol synthase enzyme assay with recombinant FeGolS-1 (products by gas chromatography); type: biochemical, Fagopyrum esculentum
# Procedure: Both the crude soluble protein extracts from E. coli and the purified GolS recombinant proteins were used in enzyme assays. […] In galactinol synthase assays, UDP-Gal was substituted with 20 mM galactinol as the galactosyl donor. Assays were run at 30° C. for 30 to 300 minutes. Reactions were stopped by addition of 50 μL of 100% ethanol. […] The reactions were stopped after 3 hours with the addition of 50 μL of 100% EtOH. […] To determine the concentration of Mn^2+ in which the enzymes had the greatest activity, multiple assays were completed varying the amount of Mn^2+. […] After 3 hours, the reactions were stopped with the addition of 50 μL of 100% EtOH. […] After 3 hours, the reactions were stopped with the addition of 50 of 100% EtOH. All samples from the assays were analyzed by gas chromatography. All were prepared for analysis in the same way. […] The solution was then filtered using NanoSep tubes and 100 μL was transferred to a silation vial. The samples were then dried under nitrogen and desiccated over P2O5 overnight. The dried samples were then derivitized with 100 μL of TMSI:pyridine (1:1, v/v) and then analyzed by gas chromatography.
# FeGolS-2 = FeGolS-2 (Fagopyrum esculentum, UniProt Q7XZ07); assay: Fagopyritol synthase / galactinol synthase enzyme assay with recombinant FeGolS-2 (products by gas chromatography); type: biochemical
# Sequence of FeGolS-2 (Q7XZ07 entry or part of it): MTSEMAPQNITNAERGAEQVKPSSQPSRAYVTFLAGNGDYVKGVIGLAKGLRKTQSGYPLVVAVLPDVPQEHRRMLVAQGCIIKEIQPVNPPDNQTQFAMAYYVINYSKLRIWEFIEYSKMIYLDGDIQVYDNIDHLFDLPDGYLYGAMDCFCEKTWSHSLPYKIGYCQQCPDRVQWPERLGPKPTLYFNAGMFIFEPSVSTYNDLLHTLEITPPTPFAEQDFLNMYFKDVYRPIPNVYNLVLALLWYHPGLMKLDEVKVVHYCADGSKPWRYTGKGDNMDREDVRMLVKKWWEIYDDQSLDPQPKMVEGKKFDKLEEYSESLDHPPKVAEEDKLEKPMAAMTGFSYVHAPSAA
# Procedure: (§1) Both the crude soluble protein extracts from E. coli and the purified GolS recombinant proteins were used in enzyme assays. […] In galactinol synthase assays, UDP-Gal was substituted with 20 mM galactinol as the galactosyl donor. Assays were run at 30° C. for 30 to 300 minutes. Reactions were stopped by addition of 50 μL of 100% ethanol.
# (§2) The reactions were stopped after 3 hours with the addition of 50 μL of 100% EtOH.
# (§3) To determine the concentration of Mn^2+ in which the enzymes had the greatest activity, multiple assays were completed varying the amount of Mn^2+. […] After 3 hours, the reactions were stopped with the addition of 50 μL of 100% EtOH.
# (§4) The reactions were completed using 1-2 μg of enzyme in a 50 μL solution containing 20 mM galactosyl acceptor, 20 mM UDP-galactose, 50 mM HEPES, pH 7.0, 2 mM DTT, 5 mM Mn^2+ at 30° C. After 3 hours, the reactions were stopped with the addition of 50 of 100% EtOH.
# (§5) All samples from the assays were analyzed by gas chromatography. All were prepared for analysis in the same way. […] The solution was then filtered using NanoSep tubes and 100 μL was transferred to a silation vial. The samples were then dried under nitrogen and desiccated over P2O5 overnight. The dried samples were then derivitized with 100 μL of TMSI:pyridine (1:1, v/v) and then analyzed by gas chromatography.
# GmGolS = assay: Galactinol synthase / fagopyritol synthase enzyme assay with recombinant GmGolS; type: biochemical, Glycine max
# Procedure: as §1
# Both crude soluble protein extracts from E. coli containing the recombinant GmGolS protein and purified recombinant GmGolS protein were used in enzyme assays. […] Assays were run at 30° C. for 30 to 300 minutes. Reactions were stopped by addition of 50 μL of 100% ethanol.
# as §2, §3, §4, §5
# [1] = 20 mM galactosyl donor instead of UDP-Gal
activity as galactosyl acceptor (FeGolS-1),activity as galactosyl acceptor (GmGolS),Compound,further results
–,–,"OC[C@H]1O[C@H](OC2[C@@H](O)[C@H](O)C(O)[C@H](O)[C@@H]2O)[C@H](O)[C@@H](O)[C@H]1O (some centres unmarked) [Galactinol, galactinol]",activity as galactosyl donor (FeGolS-1; [1]): Neither FeGolS-1 nor FeGolS-2 was active; activity as galactosyl donor (FeGolS-2; [1]): Neither FeGolS-1 nor FeGolS-2 was active; activity as galactosyl donor (GmGolS; galactosyl donor instead of UDP-Gal): not active
–,not active,"COC1[C@@H](O)[C@H](O)C(O)[C@H](O)[C@H]1O (some centres unmarked) [sequoyitol, 5-O-methyl-myo-inositol]",–
–,not active,"CO[C@H]1[C@H](O)[C@@H](O)[C@H](O)[C@H](O)[C@H]1O [L-quebrachitol, 1L-2-O-methyl-chiro-inositol]",–
–,not active,"COC1[C@@H](O)[C@@H](O)C(O)[C@H](O)[C@H]1O (stereo partly drawn) [D-ononitol, 1D-4-O-methyl-myo-inositol]",–
–,no activity,OC1C(O)C(O)C(O)C(O)C1O (stereo not drawn) [epi-inositol],–
can be used as galactosyl acceptors,–,"OC1C(O)C(O)C(O)C(O)C1O [D-chiro-Inositol, D-chiro-inositol]","activity as galactosyl acceptor (FeGolS-1; listed as D-chiro-inositol): catalyzed the biosynthesis of fagopyritol B1; activity as galactosyl acceptor (GmGolS; listed as D-chiro-inositol): catalyzed the biosynthesis of fagopyritol B1, but not fagopyritol A1; also recorded: catalyzed the biosynthesis of fagopyritol B1; also recorded: can be used as galactosyl acceptors"
–,not active,"CO[C@H]1[C@H](O)[C@@H](O)[C@@H](O)[C@H](O)[C@@H]1O [D-Pinitol, 1D-3-O-methyl-chiro-inositol]",–
can be used as galactosyl acceptors,reduced activity,"COC1[C@H](O)[C@H](O)C(O)[C@H](O)[C@H]1O (stereo partly drawn) [D-bornesitol, 1D-1-O-methyl-myo-inositol]",activity as galactosyl acceptor (FeGolS-2): can be used as galactosyl acceptors; activity as galactosyl acceptor (GmGolS; listed as bornesitol): can be used as galactosyl acceptors

Compound,activity as galactosyl acceptor (FeGolS-1),activity as galactosyl acceptor (GmGolS),further results
O[C@H]1[C@H](O)[C@@H](O)[C@H](O)[C@@H](O)[C@@H]1O [scyllo-inositol],can be used as galactosyl acceptors,reduced activity; also recorded: can be used as galactosyl acceptors,activity as galactosyl acceptor (FeGolS-2): can be used as galactosyl acceptors
OC1C(O)C(O)C(O)C(O)C1O [L-chiro-inositol],can be used as galactosyl acceptors,active; also recorded: can be used as galactosyl acceptors,–
"O[C@H]1[C@H](O)[C@@H](O)[C@H](O)[C@@H](O)[C@H]1O [myo-Inositol, myo-inositol]",catalyzed the biosynthesis of galactinol; also recorded: can be used as galactosyl acceptors,catalyzed the biosynthesis of galactinol; also recorded: can be used as galactosyl acceptors,activity as galactosyl acceptor (FeGolS-2): catalyzed the biosynthesis of galactinol; also recorded: can be used as galactosyl acceptors
